From ChEMBL document CHEMBL5360540, “Antitumor effect of 3-(quinolin-2-ylmethylene)-4,6-dimethyl-5-hydroxy-7-azaoxindole down-regulating the Gas6-Axl axis” (Eur J Med Chem, 2023)

Columns and labels:
[1] = test system: MCF7; test: Cytotoxicity against human MCF7 cells assessed as inhibition of cell growth at 30 uM incubated for 48 hrs by MTT assay relative to control; type: functional
[2] = test system: PANC-1; test: Cytotoxicity against human PANC-1 cells assessed as inhibition of cell growth at 30 uM incubated for 48 hrs by MTT assay relative to control; type: functional
[3] = test system: HT-29; test: Cytotoxicity against human HT-29 cells assessed as inhibition of cell growth incubated for 48 hrs by MTT assay; type: functional, cell-based; conditions: HT-29, 48 h
[4] = test system: PANC-1; test: Cytotoxicity against human PANC-1 cells assessed as inhibition of cell growth incubated for 48 hrs by MTT assay; type: functional, cell-based; conditions: PANC-1, 48 h
[5] = test system: U-937; test: Cytotoxicity against human U-937 cells assessed as inhibition of cell growth incubated for 48 hrs by MTT assay; type: functional, cell-based; conditions: U-937, 48 h
[6] = test system: MDA-MB-231; test: Cytotoxicity against human MDA-MB-231 cells assessed as inhibition of cell growth incubated for 48 hrs by MTT assay; type: functional, cell-based; conditions: MDA-MB-231, 48 h
[7] = Cytotoxicity against HEK293 cells assessed as inhibition of cell growth incubated for 48 hrs by MTT assay; type: toxicity, cell-based; conditions: human
[8] = Cytotoxicity against CHO-K1 cells assessed as inhibition of cell growth incubated for 48 hrs by MTT assay; type: toxicity, cell-based, Cricetulus griseus; conditions: Chinese hamster
[9] = test system: MCF7; test: Cytotoxicity against human MCF7 cells assessed as inhibition of cell growth incubated for 48 hrs by MTT assay; type: functional, cell-based; conditions: MCF7, 48 h
[10] = test system: A549; test: Cytotoxicity against human A549 cells assessed as inhibition of cell growth incubated for 48 hrs by MTT assay; type: functional, cell-based; conditions: A549, 48 h
[11] = test system: DU-145; test: Cytotoxicity against human DU-145 cells assessed as inhibition of cell growth incubated for 48 hrs by MTT assay; type: functional, cell-based; conditions: DU-145, 48 h

Compound	inhibition at 30 µM [1] [%]	inhibition at 30 µM [2] [%]	also measured
Cc1ccc(/C=C2\C(=O)Nc3nc(C)c(O)c(C)c32)s1	53.4	30.2	–
Cc1nc2c(c(C)c1O)/C(=C/c1ccc[nH]1)C(=O)N2	27	16.9	–
COc1cc(/C=C2\C(=O)Nc3nc(C)c(O)c(C)c32)cc(OC)c1OC	41.2	40.7	–
COc1cccc(/C=C2\C(=O)Nc3nc(C)c(O)c(C)c32)c1	29.6	46.5	–
COc1ccccc1/C=C1\C(=O)Nc2nc(C)c(O)c(C)c21	30.7	10.2	–
Cc1ccsc1/C=C1\C(=O)Nc2nc(C)c(O)c(C)c21	59	47.3	–
Cc1nc2c(c(C)c1O)/C(=C/c1ccco1)C(=O)N2	31.5	16.4	–
Cc1nc2c(c(C)c1O)/C(=C/C(c1ccccc1)c1ccccc1)C(=O)N2	78.1	81.5	IC50 [3]: 11.5 µM; IC50 [4]: 7.4 µM; IC50 [5]: 16.6 µM; IC50 [6]: 22.9 µM; IC50 at 48 h [7]: 37.8 µM; IC50 at 48 h [8]: 30.1 µM; IC50 [9]: 6.4 µM; IC50 [10]: 31.5 µM; IC50 [11]: 8.8 µM
Cc1nc2c(c(C)c1O)/C(=C/c1nccs1)C(=O)N2	5.6	9	–
Cc1nc2c(c(C)c1O)/C(=C/c1ccc(Cl)cc1)C(=O)N2	51.7	45	–
Cc1nc2c(c(C)c1O)/C(=C/c1ccccn1)C(=O)N2	28.1	29.3	–
Cc1ccc(/C=C2\C(=O)Nc3nc(C)c(O)c(C)c32)cc1	32.3	29.2	–
COc1cc(/C=C/C=C2\C(=O)Nc3nc(C)c(O)c(C)c32)ccc1O	6.9	24.5	–
COc1ccc(OC)c(/C=C2\C(=O)Nc3nc(C)c(O)c(C)c32)c1	67.5	69.3	IC50 [3]: 16.6 µM; IC50 [4]: 19.5 µM; IC50 [5]: 33 µM; IC50 [6]: 22.9 µM; IC50 at 48 h [7]: 11 µM; IC50 at 48 h [8]: 47.5 µM; IC50 [9]: 20.9 µM; IC50 [10]: 47.5 µM; IC50 [11]: 5.6 µM
Cc1nc2c(c(C)c1O)/C(=C/c1ncc[nH]1)C(=O)N2	2.6	7.2	–
Cc1nc2c(c(C)c1O)/C(=C/c1ccccc1O)C(=O)N2	29.2	42.1	–

Compound	inhibition at 30 µM [1] [%]	inhibition at 30 µM [2] [%]	also measured
CCCCC/C=C1\C(=O)Nc2nc(C)c(O)c(C)c21	76.9	77.5	IC50 [3]: 12.9 µM; IC50 [4]: 8.1 µM; IC50 [5]: 11.5 µM; IC50 [6]: 12.6 µM; IC50 at 48 h [7]: 6.1 µM; IC50 at 48 h [8]: 20.9 µM; IC50 [9]: 13.9 µM; IC50 [10]: 7.6 µM; IC50 [11]: 11 µM
Cc1nc2c(c(C)c1O)/C(=C/c1ccc3ccccc3c1)C(=O)N2	30.5	29	–
COc1ccc(/C=C2\C(=O)Nc3nc(C)c(O)c(C)c32)cc1	23.9	36.4	–
Cc1nc2c(c(C)c1O)/C(=C/c1ccc([N+](=O)[O-])cc1)C(=O)N2	16.3	32.6	–
Cc1nc2c(c(C)c1O)/C(=C/c1ccc(F)cc1)C(=O)N2	48.3	51.9	–
Cc1nc2c(c(C)c1O)/C(=C/c1ccoc1)C(=O)N2	66.3	26.2	IC50 [3]: > 90 µM; IC50 [4]: > 100 µM; IC50 [5]: 31.5 µM; IC50 [6]: > 90 µM; IC50 at 48 h [7]: > 90 µM; IC50 at 48 h [8]: > 90 µM; IC50 [9]: 22.9 µM; IC50 [10]: > 90 µM; IC50 [11]: 22.9 µM
Cc1nc2c(c(C)c1O)/C(=C/c1ccncc1)C(=O)N2	63.2	65.5	IC50 [3]: 30.1 µM; IC50 [4]: 19.1 µM; IC50 [5]: 34.5 µM; IC50 [6]: > 90 µM; IC50 at 48 h [7]: > 90 µM; IC50 at 48 h [8]: 57 µM; IC50 [9]: 19.1 µM; IC50 [10]: 30.1 µM; IC50 [11]: 30.8 µM
Cc1nc2c(c(C)c1O)/C(=C/c1ccccc1[N+](=O)[O-])C(=O)N2	23.9	27.9	–
Cc1nc2c(c(C)c1O)/C(=C/c1cnc[nH]1)C(=O)N2	4.1	4.5	–
Cc1cc(C)c(/C=C2\C(=O)Nc3nc(C)c(O)c(C)c32)[nH]1	47.3	44.8	–
COc1ccc(Br)cc1/C=C1\C(=O)Nc2nc(C)c(O)c(C)c21	74.7	71.8	IC50 [3]: 25.1 µM; IC50 [4]: 6.4 µM; IC50 [5]: 12.6 µM; IC50 [6]: 10.5 µM; IC50 at 48 h [7]: 19.5 µM; IC50 at 48 h [8]: 30.1 µM; IC50 [9]: 11 µM; IC50 [10]: 10.1 µM; IC50 [11]: 4.6 µM
Cc1nc2c(c(C)c1O)/C(=C/c1cccs1)C(=O)N2	57.8	42.3	–
CCC(/C=C1\C(=O)Nc2nc(C)c(O)c(C)c21)CC	30.5	45	–
Cc1nc2c(c(C)c1O)/C(=C/c1c[nH]c3ccccc13)C(=O)N2	2.4	17.1	–
Cc1nc2c(c(C)c1O)/C(=C/C1CCCCC1)C(=O)N2	10	49.1	–
Cc1nc2c(c(C)c1O)/C(=C/c1cccc3[nH]ccc13)C(=O)N2	14.5	32.3	–
